Assay results reported in patent publication US8741944B2, “Anti-infective agents against intracellular pathogens” (priority 2007, dated 2014).
Read-outs that look alike come from different tables or passages of the source.

How the values were obtained:
COX-2 = COX-2 (Homo sapiens (Human), UniProt P35354); assay: COX-2 inhibitory activity; format: biochemical; conditions: concentrations up to 50 μM
[1] = system: NCI-H226 (Non-Small Cell Lung Cancer)
Description: For a typical screening experiment, cells are inoculated into 96 well microtiter plates in 100 μL at plating densities ranging from 5,000 to 40,000 cells/well depending on the doubling time of individual cell lines. After cell inoculation, the microtiter plates are incubated at 37° C., 5% CO2, 95% air and 100% relative humidity for 24 h prior to addition of experimental drugs.
After 24 h, two plates of each cell line are fixed in situ with TCA, to represent a measurement of the cell population for each cell line at the time of drug addition (Tz). Experimental drugs are solubilized in dimethyl sulfoxide at 400-fold the desired final maximum test concentration and stored frozen prior to use. At the time of drug addition, an aliquot of frozen concentrate is thawed and diluted to twice the desired final maximum test concentration with complete medium containing 50 μg/ml gentamicin. Additional four, 10-fold or ½ log serial dilutions are made to provide a total of five drug concentrations plus control. Aliquots of 100 μl of these different drug dilutions are added to the appropriate microtiter wells already containing 100 μl of medium, resulting in the required final drug concentrations.
Following drug addition, the plates are incubated for an additional 48 h at 37° C., 5% CO2, 95% air, and 100% relative humidity. For adherent cells, the assay is terminated by the addition of cold TCA. Cells are fixed in situ by the gentle addition of 50 μl of cold 50% (w/v) TCA (final concentration, 10% TCA) and incubated for 60 minutes at 4° C. The supernatant is discarded, and the plates are washed five times with tap water and air dried. Sulforhodamine B (SRB) solution (1001) at 0.4% (w/v) in 1% acetic acid is added to each well, and plates are incubated for 10 minutes at room temperature. After staining, unbound dye is removed by washing five times with 1% acetic acid and the plates are air dried. Bound stain is subsequently solubilized with 10 mM trizma base, and the absorbance is read on an automated plate reader at a wavelength of 515 nm. For suspension cells, the methodology is the same except that the assay is terminated by fixing settled cells at the bottom of the wells by gently adding 50 μl of 80% TCA (final concentration, 16% TCA). Using the seven absorbance measurements [time zero, (Tz), control growth, (C), and test growth in the presence of drug at the five concentration levels (Ti)], the percentage growth is calculated at each of the drug concentrations levels. Percentage growth inhibition is calculated as: [(Ti−Tz)/(C−Tz)]×100 for concentrations for which Ti>/=Tz [(Ti−Tz)/Tz]×100 for concentrations for which Ti<Tz
Three dose response parameters are calculated for each experimental agent. […] The drug concentration resulting in total growth inhibition (TGI) is calculated from Ti=Tz. […] Values are calculated for each of these three parameters if the level of activity is reached; however, if the effect is not reached or is exceeded, the value for that parameter is expressed as greater or less than the maximum or minimum concentration tested.

Sequence of COX-2 (P35354 whole entry, looked up): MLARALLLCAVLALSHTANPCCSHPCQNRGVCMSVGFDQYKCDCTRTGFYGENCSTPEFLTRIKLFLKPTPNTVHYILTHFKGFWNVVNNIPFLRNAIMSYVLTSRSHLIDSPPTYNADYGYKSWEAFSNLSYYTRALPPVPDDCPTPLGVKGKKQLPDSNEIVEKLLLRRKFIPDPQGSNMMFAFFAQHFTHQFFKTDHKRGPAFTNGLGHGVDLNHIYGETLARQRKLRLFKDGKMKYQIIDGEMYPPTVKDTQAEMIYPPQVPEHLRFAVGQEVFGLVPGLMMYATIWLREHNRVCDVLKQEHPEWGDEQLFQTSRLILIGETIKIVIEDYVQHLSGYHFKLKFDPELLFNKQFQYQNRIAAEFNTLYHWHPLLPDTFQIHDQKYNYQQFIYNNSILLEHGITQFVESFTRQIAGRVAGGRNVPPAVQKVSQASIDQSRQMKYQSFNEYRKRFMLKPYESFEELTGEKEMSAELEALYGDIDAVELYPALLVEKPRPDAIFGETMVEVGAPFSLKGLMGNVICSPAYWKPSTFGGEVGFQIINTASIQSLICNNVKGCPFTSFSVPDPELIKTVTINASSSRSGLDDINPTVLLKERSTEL

Row | Compound | COX-2 inhibitory activity (COX-2) | TGI [1] | Mean Optical Densities ([1]; Log10 Concentration −4.0) | Mean Optical Densities ([1]; Log10 Concentration −5.0) | Percent Growth ([1]; Log10 Concentration −5.0) [%] | Mean Optical Densities ([1]; Log10 Concentration −6.0) | Percent Growth ([1]; Log10 Concentration −6.0) [%] | Mean Optical Densities ([1]; Log10 Concentration −7.0) | Percent Growth ([1]; Log10 Concentration −7.0) [%] | Mean Optical Densities ([1]; Log10 Concentration −8.0) | Percent Growth ([1]; Log10 Concentration −8.0) [%]
1 | 4-[5-(2-Phenanthrenyl)-3-(trifluoromethyl)-1H-pyrazol-1-yl]-phenyl -guanidine [Compound 71] | nor was any measurable COX-2 inhibitory activity detected |  |  |  |  |  |  |  |  |  | 
2 | NCC(=O)Nc1ccc(-n2nc(C(F)(F)F)cc2-c2ccc3c(ccc4ccccc43)c2)cc1 [Compound 70, 2-Amino-N-{4-[5-(2-phenanthrenyl)-3-(trifluoromethyl)-1H-pyrazol-1-yl]-phenyl}-acetamide] |  | 3.21E−06 | 0.614 | 0.505 | −58 | 1.429 | 59 | 1.586 | 98 | 1.593 | 100
